Test system: 817829-284-R-J1-PDC complex spheroids, viability
Test: Anticancer human tumor 817829-284-R-J1-PDC patient-derived colon adenocarcinoma cell line growth inhibition [GQUAD]
Details: for IC50: curve of first compound; for viability, T/C: stronger effect = lower value
Description: DNA G-quadruplex Stabilizer Agents in Combinations in Complex Spheroids
A high-throughput screen of multi-cell type tumor spheroids was designed to identify active combinations of DNA G-quadruplex stabilizer agents and targeted small molecules. Complex spheroids include a stromal component modeled by human endothelial cells (HUVEC) and fibroblasts modeled by human mesenchymal stem cells (MSCs). The concentration ranges selected for each drug and investigational agent were based upon clinically achievable concentrations if the clinical Cmax of the agent was known.
Compounds. The drugs and investigational agents: pidnarulex (CX-5461; NSC782164), APTO-253 (NSC789042), BRACO-19 (NSC847499), peposertib (NSC802822), ceralasertib (NSC780249), elimusertib (NSC800525), camonsertib (NSC841442), AZD-1390 (NSC803789), olaparib (NSC753686), talazoparib (NSC767125), ART-558 (NSC835418), sotorasib (NSC818433), MRTX-1133 (NSC836407), SN-38 (NSC673596), topotecan (NSC609699), etoposide (NSC141540), doxorubicin (NSC123127), gemcitabine (NSC613327), 5-fluorouracil (NSC19893), paclitaxel (NSC125973), vemurafenib (NSC761431), panobinostat (NSC761190), R-306465 (JNJ-16241199; NSC773264), adavosertib (NSC754352), TP-3654 (NSC805149), carboplatin (NSC241240), KSQ-4279 (NSC840948), and staurosporine (NSC755774) were obtained from the National Cancer Institute (NCI) Developmental Therapeutics Program Chemical Repository (34). The FDA-approved anticancer drug set is available from the NCI Developmental Therapeutics Program. […] The stock solutions were prepared in dimethyl sulfoxide (DMSO, Sigma-Aldrich, St. Louis, MO, cat. D2650) at 800-fold the tested concentration and stored at -70 degrees C prior to their use. All drugs and investigational agents were tested over a range starting from a high concentration at or near the clinical Cmax and decreasing in half-log increments. If the clinical Cmax for an agent had not been determined, the highest concentration tested was 10 microM.
2.3 Cell Culture. All cells were maintained in an incubator at 37 degrees C and 5% CO2 with 95% humidity. The PDC lines were cultured according to standard operating procedures established by the NCI PDMR. All PDCs were thawed and cultured in Matrigel-coated flasks prepared with a working solution of 1X Ham's F-12 nutrient mix, without supplementation (Invitrogen, cat. 11765054), 100 U/mL penicillin-streptomycin (Invitrogen, cat. 15140122), and 2.5% Matrigel (Corning Inc., cat. 354248) for the first three passages. The 857933-349-R-J2-PDC line was cultured in 6C/Colon 1B media, which includes advanced DMEM/F-12 (Thermo Fisher Scientific, cat. 12634028), 10 mM HEPES (Thermo Fisher Scientific, cat. 15630080), 1X GlutaMAX supplement (Thermo Fisher Scientific, cat. 35050061), 0.1 mg/mL primocin (InvivoGen, cat. ant-pm-2), 10% defined fetal bovine serum, heat inactivated (HyClone Laboratories Inc., cat. SH30070.03HI), 50% L-WRN conditioned media (ATCC, cat. CRL-3276), 1.25 mM N-Acetyl-L-cysteine (Sigma-Aldrich, cat. A9165), 10 mM nicotinamide (Sigma-Aldrich, cat. N0636), 1X B-27 supplement (Thermo Fisher Scientific, cat. 17504044), 1X N-2 supplement (Thermo Fisher Scientific, cat. 17502048), 10 microM Y-27632 dihydrochloride (Tocris Bioscience, cat. 1254), and 50 ng/mL human EGF recombinant protein (Thermo Fisher Scientific, cat. PHG0311). The 485176-168-R4-J1-PDC line was cultured in Panc media, which includes all 6C/Colon 1B media components plus 100 ng/mL human FGF-10 (Thermo Fisher Scientific, cat. 100-26), 500 nM SB-431542 (Selleckchem, cat. S1067), and gastrin (Tocris, cat. 3006).
[…]

[1] = second compound 0.0316 µM, first compound 0.0316 µM
[2] = second compound 0.0316 µM, first compound 0.1 µM
[3] = second compound 0.0316 µM, first compound 0.316 µM
[4] = second compound 0.0316 µM, first compound 1 µM
[5] = second compound 0.0316 µM, first compound 3.16 µM
[6] = second compound 0.0316 µM, first compound 10 µM
[7] = second compound 0.1 µM, first compound 0.0316 µM
[8] = second compound 0.1 µM, first compound 0.1 µM
[9] = second compound 0.1 µM, first compound 0.316 µM
[10] = second compound 0.1 µM, first compound 1 µM
[11] = second compound 0.1 µM, first compound 3.16 µM
[12] = second compound 0.1 µM, first compound 10 µM
[13] = second compound 0.316 µM, first compound 0.0316 µM
[14] = second compound 0.316 µM, first compound 0.1 µM
[15] = second compound 0.316 µM, first compound 0.316 µM
[16] = second compound 0.316 µM, first compound 1 µM
[17] = second compound 0.316 µM, first compound 3.16 µM
[18] = second compound 0.316 µM, first compound 10 µM
[19] = second compound 1 µM, first compound 0.0316 µM
[20] = second compound 1 µM, first compound 0.1 µM
[21] = second compound 1 µM, first compound 0.316 µM
[22] = second compound 1 µM, first compound 1 µM
[23] = second compound 1 µM, first compound 3.16 µM
[24] = second compound 1 µM, first compound 10 µM
[25] = second compound 3.16 µM, first compound 0.0316 µM
[26] = second compound 3.16 µM, first compound 0.1 µM
[27] = second compound 3.16 µM, first compound 0.316 µM
[28] = second compound 3.16 µM, first compound 1 µM
[29] = second compound 3.16 µM, first compound 3.16 µM
[30] = second compound 3.16 µM, first compound 10 µM
[31] = second compound 10 µM, first compound 0.0316 µM
[32] = second compound 10 µM, first compound 0.1 µM
[33] = second compound 10 µM, first compound 0.316 µM
[34] = second compound 10 µM, first compound 1 µM
[35] = second compound 10 µM, first compound 3.16 µM
[36] = second compound 10 µM, first compound 10 µM
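Also: spheroids exposed to agents for 7 days before readout.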
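For viability, T/C in this document: percent viability relative to DMSO vehicle control taken as 100%.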

## C=CCn1c(=O)c2cnc(Nc3ccc(N4CCN(C)CC4)cc3)nc2n1-c1cccc(C(C)(C)O)n1 + Cc1[nH]c2ccc(F)cc2c1-c1nc2c3cccnc3c3ncccc3c2[nH]1
Second compound 0.0316 µM
  IC50: 0.22 µM
Second compound 0.1 µM
  IC50: 0.24 µM
Second compound 0.316 µM
  IC50: 0.259 µM
Second compound 1 µM
  IC50: 0.221 µM
Second compound 3.16 µM
  IC50: < 0.0316 µM
Second compound 10 µM
  IC50: < 0.0316 µM
[1]
  viability, T/C: 101%
[2]
  viability, T/C: 92.9%
[3]
  viability, T/C: 30.2%
[4]
  viability, T/C: 8.8%
[5]
  viability, T/C: 6.61%
[6]
  viability, T/C: 5.37%
[7]
  viability, T/C: 82.1%
[8]
  viability, T/C: 111%
[9]
  viability, T/C: 35.2%
[10]
  viability, T/C: 7.33%
[11]
  viability, T/C: 6.25%
[12]
  viability, T/C: 4.08%
[13]
  viability, T/C: 97.2%
[14]
  viability, T/C: 109%
[15]
  viability, T/C: 38.9%
[16]
  viability, T/C: 8.37%
[17]
  viability, T/C: 6.05%
[18]
  viability, T/C: 4.81%
[19]
  viability, T/C: 104%
[20]
  viability, T/C: 103%
[21]
  viability, T/C: 26.2%
[22]
  viability, T/C: 8.6%
[23]
  viability, T/C: 6.38%
[24]
  viability, T/C: 4.1%
[25]
  viability, T/C: 46.1%
[26]
  viability, T/C: 30.2%
[27]
  viability, T/C: 8.17%
[28]
  viability, T/C: 5.38%
[29]
  viability, T/C: 4.83%
[30]
  viability, T/C: 4.49%
[31]
  viability, T/C: 28.6%
[32]
  viability, T/C: 14.8%
[33]
  viability, T/C: 6.57%
[34]
  viability, T/C: 4.68%
[35]
  viability, T/C: 5.07%
[36]
  viability, T/C: 4.08%

## CC(C)(O)C1CCC(Nc2ccc3ncc(-c4cccc(C(F)(F)F)c4)n3n2)CC1 (centres undefined) + Cc1[nH]c2ccc(F)cc2c1-c1nc2c3cccnc3c3ncccc3c2[nH]1
Second compound 0.0316 µM
  IC50: 2.5 µM
Second compound 0.1 µM
  IC50: 1.31 µM
Second compound 0.316 µM
  IC50: 0.955 µM
Second compound 1 µM
  IC50: 0.62 µM
Second compound 3.16 µM
  IC50: < 0.0316 µM
Second compound 10 µM
  IC50: < 0.0316 µM
[1]
  viability, T/C: 109%
[2]
  viability, T/C: 104%
[3]
  viability, T/C: 88.8%
[4]
  viability, T/C: 64%
[5]
  viability, T/C: 32.5%
[6]
  viability, T/C: 57.5%
[7]
  viability, T/C: 94.6%
[8]
  viability, T/C: 110%
[9]
  viability, T/C: 104%
[10]
  viability, T/C: 51.9%
[11]
  viability, T/C: 25.5%
[12]
  viability, T/C: 61.6%
[13]
  viability, T/C: 106%
[14]
  viability, T/C: 111%
[15]
  viability, T/C: 84.5%
[16]
  viability, T/C: 52%
[17]
  viability, T/C: 25.7%
[18]
  viability, T/C: 54.1%
[19]
  viability, T/C: 107%
[20]
  viability, T/C: 109%
[21]
  viability, T/C: 78.9%
[22]
  viability, T/C: 30.9%
[23]
  viability, T/C: 8.2%
[24]
  viability, T/C: 32.7%
[25]
  viability, T/C: 3.3%
[26]
  viability, T/C: 3.58%
[27]
  viability, T/C: 2.98%
[28]
  viability, T/C: 1.34%
[29]
  viability, T/C: 0.58%
[30]
  viability, T/C: 1.69%
[31]
  viability, T/C: 2.48%
[32]
  viability, T/C: 2.78%
[33]
  viability, T/C: 2.18%
[34]
  viability, T/C: 1.41%
[35]
  viability, T/C: 0.83%
[36]
  viability, T/C: 1.5%

— PubChem BioAssay AID2060503 (Molecular Pharmacology Branch, DTP, NCI, 2025)
